Experimental data: paper PMC6245281, “Cytotoxic Steroidal Saponins from the Flowers of Allium leucanthum” (Molecules, 2008)

Experiments:
Format in all cases: cell-based
[1] = tested on: colon adenocarcinoma (DLD-1) cell line; assay: Cytotoxicity assay (resazurin reduction test), DLD-1; details: Homo sapiens, DLD-1 cells, 48 h incubation, read-out: IC50 (μM ± SD) DLD-1
Procedure: (§1) Lung carcinoma (A549), colon adenocarcinoma (DLD-1) and normal skin fibroblast (WS1) human cell lines were purchased from the American Type Culture Collection (ATCC). All cell lines were cultured in minimum essential medium containing Earle’s salts and L-glutamine (Mediatech Cellgro, VA), to which 10% fetal bovine serum (Hyclone), vitamins (1X), penicillin (100 I.U./mL), streptomycin (100 μg/ml), essential amino acids (1X) and sodium pyruvate (1X) (Mediatech Cellgro, VA) were added. Cells were kept at 37°C in a humidified environment containing 5% CO2.
(§2) Exponentially growing cells were plated at a density of 5 × 10^3 cells per well in 96-well microplates (Costar, Corning inc.) in 100 µl of culture medium and were allowed to adhere for 16 hours before treatment. Then, 100 µl of increasing concentrations of extract or pure compounds dissolved in culture medium and DMSO (Sigma-Aldrich) were added. The final concentration of solvent in the culture medium was maintained at 0.25% (v/v) to avoid solvent toxicity. Cells were incubated for 48 h in the absence or in the presence of extract. Cytotoxicity was assessed using the resazurin reduction test as described by O’Brien) Fluorescence was measured on an automated 96-well Fluoroskan Ascent Fl plate reader (Labsystems) using an excitation wavelength of 530 nm and an emission wavelength of 590 nm. Cytotoxicity was expressed as the concentration of extract or compound inhibiting cell growth by 50% (IC50).

[2] = tested on: lung carcinoma (A549) cell line; assay: Cytotoxicity assay (resazurin reduction test), A549; details: Homo sapiens, A549 cells, 48 h incubation, read-out: IC50 (μM ± SD) A549
Procedure: as §1, §2

[3] = tested on: normal skin fibroblast (WS1) cell line; assay: Cytotoxicity assay (resazurin reduction test), WS1; details: Homo sapiens, WS1 healthy cells, 48 h incubation, read-out: IC50 (μM ± SD) WS1
Procedure: as §1, §2

Compound	IC50 [1]	IC50 [2]	IC50 [3]
O=c1[nH]cc(F)c(=O)[nH]1 [5-fluorouracil, reference compound]	11 ± 2 µM	48 ± 18 µM	20 ± 2 µM
CC1CCC2(OC1)OC1CC3C4CC(O)C5CC(OC6OC(CO)C(OC7OC(CO)C(O)C(OC8OCC(O)C(O)C8O)C7OC7OC(CO)C(O)C(O)C7O)C(O)C6O)C(O)CC5(C)C4CCC3(C)C1C2C (centres unmarked) [Aginoside (3), aginoside]	7.9 ± 0.5 µM	5.8 ± 0.9 µM	3.6 ± 0.2 µM
C[C@@H]1CC[C@@]2(OC1)O[C@H]1C[C@H]3[C@@H]4C[C@@H](O)[C@H]5C[C@@H](O[C@@H]6O[C@H](CO)[C@H](O[C@@H]7O[C@H](CO)[C@@H](O)[C@H](O[C@@H]8OC[C@@H](O)[C@H](O)[C@H]8O)[C@H]7O[C@@H]7O[C@H](CO)[C@@H](O)[C@H](O)[C@H]7O)[C@H](O)[C@H]6O)CC[C@]5(C)[C@H]4CC[C@]3(C)[C@H]1[C@@H]2C [Compound 4, (25R)-5α-spirostane-3β,6β-diol 3-O-β-D-glucopyranosyl-(1→2)-[β-D-xylopyranosyl-(1→3)]-β-D-glucopyranosyl-(1→4)-β-D-galactopyranoside]	13 ± 1 µM	9 ± 1 µM	3.1 ± 0.1 µM
C[C@@H]1CC[C@@]2(OC1)O[C@H]1C[C@H]3[C@@H]4C[C@@H](O)[C@H]5C[C@@H](O[C@@H]6O[C@H](CO)[C@H](O[C@@H]7O[C@H](CO)[C@@H](O)[C@H](O)[C@H]7O[C@@H]7O[C@H](CO)[C@@H](O)[C@H](O)[C@H]7O)[C@H](O)[C@H]6O)[C@H](O)C[C@]5(C)[C@H]4CC[C@]3(C)[C@H]1[C@@H]2C [Compound 6, (25R)-5α-spirostane-2α,3β,6β-triol 3-O-β-D-glucopyranosyl-(1→2)-β-D-glucopyranosyl-(1→4)-β-D-galactopyranoside]	22 ± 2 µM	22 ± 2 µM	14.5 ± 0.5 µM
C[C@@H]1CC[C@@]2(OC1)O[C@H]1C[C@H]3[C@@H]4C[C@@H](O)[C@H]5C[C@@H](O[C@@H]6O[C@H](CO)[C@H](O[C@@H]7O[C@H](CO)[C@@H](O)[C@H](O[C@@H]8O[C@H](CO)[C@@H](O)[C@H](O)[C@H]8O)[C@H]7O[C@@H]7O[C@H](CO)[C@@H](O)[C@H](O[C@@H]8O[C@H](CO)[C@@H](O)[C@H](O)[C@H]8O)[C@H]7O)[C@H](O)[C@H]6O)CC[C@]5(C)[C@H]4CC[C@]3(C)[C@H]1[C@@H]2C [Compound 7, (25R)-5α-spirostane-3β,6β-diol 3-O-β-D-glucopyranosyl-(1→3)-β-D-glucopyranosyl-(1→2)-[β-D-glucopyranosyl-(1→3)]-β-D-glucopyranosyl-(1→4)-β-D-galactopyranoside]	8.9 ± 0.2 µM	7.8 ± 0.4 µM	7.7 ± 0.2 µM
CC1CCC2(OC1)OC1CC3C4CC(O)C5CC(OC6OC(CO)C(OC7OC(CO)C(O)C(OC8OC(CO)C(O)C(O)C8O)C7OC7OC(CO)C(O)C(O)C7O)C(O)C6O)CCC5(C)C4CCC3(C)C1C2C (centres unmarked) [Eruboside B (2), eruboside B]	8.2 ± 0.4 µM	5.3 ± 0.5 µM	3.6 ± 0.2 µM
COc1cc([C@@H]2c3cc4c(cc3[C@@H](O[C@@H]3O[C@@H]5CO[C@@H](C)O[C@H]5[C@H](O)[C@H]3O)[C@H]3COC(=O)[C@H]23)OCO4)cc(OC)c1O [Etoposide, reference compound]	4.8 ± 0.8 µM	1.1 ± 0.1 µM	
C[C@@H]1CC[C@@]2(OC1)O[C@H]1C[C@H]3[C@@H]4C[C@@H](O)[C@H]5C[C@@H](O[C@@H]6O[C@H](CO)[C@H](O[C@@H]7O[C@H](CO)[C@@H](O)[C@H](O[C@@H]8O[C@H](CO)[C@@H](O)[C@H](O)[C@H]8O)[C@H]7O[C@@H]7O[C@H](CO)[C@@H](O)[C@H](O[C@@H]8O[C@H](CO)[C@@H](O)[C@H](O)[C@H]8O)[C@H]7O)[C@H](O)[C@H]6O)[C@H](O)C[C@]5(C)[C@H]4CC[C@]3(C)[C@H]1[C@@H]2C [Leucospiroside A (5), (25R)-5α-spirostane-2α,3β,6β-triol 3-O-β-glucopyranosyl-(1→3)-β-glucopyranosyl-(1→2)-[β-glucopyranosyl-(1→3)]-β-glucopyranosyl-(1→4)-β-galactopyranoside]	7.2 ± 0.1 µM	5 ± 0.1 µM	4.55 ± 0.07 µM
CC1CCC2(OC1)OC1CC3C4CC(O)C5CC(OC6OC(CO)C(OC7OC(CO)C(O)C(OC8OC(CO)C(O)C(O)C8O)C7OC7OC(CO)C(O)C(O)C7O)C(O)C6O)C(O)CC5(C)C4CCC3(C)C1C2C (centres unmarked) [Yayoisaponin C (1), yayoisaponin C]	5.6 ± 0.2 µM	3.7 ± 0.7 µM	3 ± 0.2 µM
